Results as given in patent US8673906B2, “Chromenone derivatives” (AstraZeneca AB, priority 2010, dated 2014).

The compounds below were run against PI3Kβ (Homo sapiens (Human), UniProt P42338) (assay: In vitro enzyme inhibition assay (Kinase Glo based enzyme activity assay)). Settings: Test (a), human recombinant enzyme; read-out: PI3Kβ inhibition, IC50.
PI3Kβ, sequence (P42338 whole entry): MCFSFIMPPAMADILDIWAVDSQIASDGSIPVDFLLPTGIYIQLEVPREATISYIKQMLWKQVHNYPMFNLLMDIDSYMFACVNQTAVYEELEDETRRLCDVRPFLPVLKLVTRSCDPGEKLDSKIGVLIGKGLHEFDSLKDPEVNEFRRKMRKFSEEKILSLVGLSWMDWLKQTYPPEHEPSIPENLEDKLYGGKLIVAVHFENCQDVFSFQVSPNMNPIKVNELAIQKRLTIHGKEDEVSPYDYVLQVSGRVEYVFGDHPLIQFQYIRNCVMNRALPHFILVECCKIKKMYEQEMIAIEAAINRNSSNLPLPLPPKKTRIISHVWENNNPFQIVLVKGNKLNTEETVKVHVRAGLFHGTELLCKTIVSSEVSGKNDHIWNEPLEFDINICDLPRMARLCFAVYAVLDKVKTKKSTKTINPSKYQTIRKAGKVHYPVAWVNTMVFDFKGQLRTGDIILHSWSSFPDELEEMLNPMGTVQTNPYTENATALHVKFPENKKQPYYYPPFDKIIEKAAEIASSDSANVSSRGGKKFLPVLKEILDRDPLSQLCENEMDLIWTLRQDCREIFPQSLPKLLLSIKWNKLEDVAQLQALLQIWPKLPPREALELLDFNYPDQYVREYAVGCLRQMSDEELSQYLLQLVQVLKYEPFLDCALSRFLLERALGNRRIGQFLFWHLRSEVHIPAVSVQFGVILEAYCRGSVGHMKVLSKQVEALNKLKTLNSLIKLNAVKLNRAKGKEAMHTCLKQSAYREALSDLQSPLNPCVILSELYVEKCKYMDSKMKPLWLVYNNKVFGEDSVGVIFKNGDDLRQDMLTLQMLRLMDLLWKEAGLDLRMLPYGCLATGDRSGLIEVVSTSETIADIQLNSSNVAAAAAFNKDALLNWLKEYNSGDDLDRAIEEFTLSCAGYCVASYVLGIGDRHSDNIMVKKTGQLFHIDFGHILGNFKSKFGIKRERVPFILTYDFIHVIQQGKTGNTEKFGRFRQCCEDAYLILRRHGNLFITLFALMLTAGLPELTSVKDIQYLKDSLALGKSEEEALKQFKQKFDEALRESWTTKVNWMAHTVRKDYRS
PI3Kβ, sequence (P27986 whole entry partner): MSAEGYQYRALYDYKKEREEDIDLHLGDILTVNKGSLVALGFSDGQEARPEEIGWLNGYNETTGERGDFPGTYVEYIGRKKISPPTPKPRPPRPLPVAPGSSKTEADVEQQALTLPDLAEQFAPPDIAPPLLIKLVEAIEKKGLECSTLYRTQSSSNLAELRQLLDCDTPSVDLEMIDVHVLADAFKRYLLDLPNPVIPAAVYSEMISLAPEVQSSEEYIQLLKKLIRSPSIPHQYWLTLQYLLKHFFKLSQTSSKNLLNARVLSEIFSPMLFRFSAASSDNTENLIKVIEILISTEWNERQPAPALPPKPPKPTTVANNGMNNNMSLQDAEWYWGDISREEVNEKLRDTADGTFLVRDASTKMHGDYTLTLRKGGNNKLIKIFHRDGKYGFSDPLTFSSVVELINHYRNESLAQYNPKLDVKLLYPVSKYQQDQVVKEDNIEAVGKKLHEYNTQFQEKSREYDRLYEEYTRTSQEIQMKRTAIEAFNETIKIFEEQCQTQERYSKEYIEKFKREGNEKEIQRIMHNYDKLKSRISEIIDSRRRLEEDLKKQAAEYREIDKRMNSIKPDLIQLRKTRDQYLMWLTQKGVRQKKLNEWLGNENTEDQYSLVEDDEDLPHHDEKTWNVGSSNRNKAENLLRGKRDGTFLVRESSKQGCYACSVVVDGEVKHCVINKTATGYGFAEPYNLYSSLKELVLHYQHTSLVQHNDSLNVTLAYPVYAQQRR
Type: biochemical
Procedure: (a) In Vitro Enzyme Inhibition Assay
The inhibition of PI3Kβ, PI3Kα, PI3Kγ and PI3Kδ was evaluated in a Kinase Glo based enzyme activity assay using human recombinant enzymes. The assay measures depletion of ATP after incubation with enzyme, PIP2 and ATP plus compound. ATP at the end of the reaction is detected by addition of Kinase Glo reagent, in this the Ultra Glo™ luciferase (Promega) uses the ATP as a substrate to catalyze the mono-oxygenation of luciferin and the generation of light. A direct relationship exists between the luminescence measured with the Kinase-Glo Plus Reagent and the amount of ATP remaining in a completed kinase reaction and luminescence is inversely related to kinase activity. Twelve different compound concentrations were tested and raw data from the inhibition of PI3 Kb, PI3Kα, PI3Kγ and PI3Kδ was plotted versus inhibitor concentration.
Compounds in 100% DMSO were added to assay plates by acoustic dispensing. PI3Kβ was added in a Tris buffer (50 mM Tris pH7.4, 0.05% CHAPS, 2.1 mM DTT, and 10 mM MgCl2) and allowed to preincubate with compound for 20 minutes prior to addition of substrate solution containing PIP2 and ATP. The enzyme reaction was stopped after 80 minutes by the addition of Kinase Glo detection solution. Plates were left for 30 minutes at room temperature then read on a Pherastar Instrument (Luminescence ATP 384 program) setting gain on max well. The final concentration of DMSO, ATP and PIP2 in the assay were, 1%, 80 μM, and 80 μM respectively.
IC50 values were calculated using a log curve fitting to a non-linear regression package, fitting raw data to inhibitor concentration.
Compound CC(Nc1cc(F)cc(F)c1)c1cc(C(=O)N2CCCCC2)cc2c(=O)cc(N3CCOCC3)oc12 (stereo not drawn) [Example 4.10, 8-(1-(3,5-difluorophenylamino)ethyl)-2-morpholino-6-(piperidine-1-carbonyl)-4H-chromen-4-one] has an IC50 of 5 nM. CCN(C)C(=O)c1cc(C(C)Nc2cc(F)cc(F)c2)c2oc(N3CCOCC3)cc(=O)c2c1 (stereo not drawn) [Example 4.11, 8-(1-(3,5-difluorophenylamino)ethyl)-N-ethyl-N-methyl-2-morpholino-4-oxo-4H-chromene-6-carboxamide] showed an IC50 of 2 nM. Work on CC(Nc1cc(F)cc(F)c1)c1cc(C(=O)N2CC(O)C2)cc2c(=O)cc(N3CCOCC3)oc12 (stereo not drawn) [Example 4.12, 8-(1-(3,5-difluorophenylamino)ethyl)-6-(3-hydroxyazetidine-1-carbonyl)-2-morpholino-4H-chromen-4-one] yielded an IC50 of 4 nM. CC(Nc1cc(F)cc(F)c1)c1cc(C(=O)N2CC(F)C2)cc2c(=O)cc(N3CCOCC3)oc12 (stereo not drawn) [Example 4.13, 8-(1-(3,5-difluorophenylamino)ethyl)-6-(3-fluoroazetidine-1-carbonyl)-2-morpholino-4H-chromen-4-one] showed an IC50 of 9 nM. Work on CC(Nc1cc(F)cc(F)c1)c1cc(C(=O)NCCO)cc2c(=O)cc(N3CCOCC3)oc12 (stereo not drawn) [Example 4.14, 8-(1-(3,5-difluorophenylamino)ethyl)-N-(2-hydroxyethyl)-2-morpholino-4-oxo-4H-chromene-6-carboxamide] yielded an IC50 of 4 nM. COCCNC(=O)c1cc(C(C)Nc2cc(F)cc(F)c2)c2oc(N3CCOCC3)cc(=O)c2c1 (stereo not drawn) [Example 4.15, 8-(1-(3,5-difluorophenylamino)ethyl)-N-(2-methoxyethyl)-2-morpholino-4-oxo-4H-chromene-6-carboxamide] was tested, and the IC50 was 4 nM. For CCCNC(=O)c1cc(C(C)Nc2cc(F)cc(F)c2)c2oc(N3CCOCC3)cc(=O)c2c1 (stereo not drawn) [Example 4.16, 8-(1-(3,5-difluorophenylamino)ethyl)-2-morpholino-4-oxo-N-propyl-4H-chromene-6-carboxamide], the IC50 was 9 nM. CCNC(=O)c1cc(C(C)Nc2cc(F)cc(F)c2)c2oc(N3CCOCC3)cc(=O)c2c1 (stereo not drawn) [Example 4.17, 8-(1-(3,5-difluorophenylamino)ethyl)-N-ethyl-2-morpholino-4-oxo-4H-chromene-6-carboxamide] showed an IC50 of 5 nM. For CC(Nc1cc(F)cc(F)c1)c1cc(C(=O)NCCF)cc2c(=O)cc(N3CCOCC3)oc12 (stereo not drawn) [Example 4.18, 8-(1-(3,5-difluorophenylamino)ethyl)-N-(2-fluoroethyl)-2-morpholino-4-oxo-4H-chromene-6-carboxamide], the IC50 was 4 nM. COCCCNC(=O)c1cc(C(C)Nc2cc(F)cc(F)c2)c2oc(N3CCOCC3)cc(=O)c2c1 (stereo not drawn) [Example 4.19, 8-(1-(3,5-difluorophenylamino)ethyl)-N-(3-methoxypropyl)-2-morpholino-4-oxo-4H-chromene-6-carboxamide] was tested, and the IC50 was 23 nM. Compound CC(Nc1cc(F)cc(F)c1)c1cc(C(=O)N2CCC[C@@H]2CO)cc2c(=O)cc(N3CCOCC3)oc12 (stereo partly drawn) [Example 4.20, 8-(1-(3,5-difluorophenylamino)ethyl)-6-((R)-2-(hydroxymethyl)pyrrolidine-1-carbonyl)-2-morpholino-4H-chromen-4-one] has an IC50 of 5 nM. In the case of CC(Nc1cc(F)cc(F)c1)c1cc(C(=O)N2CCC[C@H]2CO)cc2c(=O)cc(N3CCOCC3)oc12 (stereo partly drawn) [Example 4.21, 8-(1-(3,5-difluorophenylamino)ethyl)-6-((S)-2-(hydroxymethyl)pyrrolidine-1-carbonyl)-2-morpholino-4H-chromen-4-one], the IC50 is reported as 4 nM. Compound CNC(=O)c1cc(C(C)Nc2cc(F)cc(F)c2)c2oc(N3CCOCC3)cc(=O)c2c1 (stereo not drawn) [Example 4.22, 8-(1-(3,5-difluorophenylamino)ethyl)-N-methyl-2-morpholino-4-oxo-4H-chromene-6-carboxamide] has an IC50 of 4 nM. In the case of CC(Nc1cc(F)cc(F)c1)c1cc(C(=O)NCC2CC2)cc2c(=O)cc(N3CCOCC3)oc12 (stereo not drawn) [Example 4.23, N-(cyclopropylmethyl)-8-(1-(3,5-difluorophenylamino)ethyl)-2-morpholino-4-oxo-4H-chromene-6-carboxamide], the IC50 is reported as 3 nM. COCCN(C)C(=O)c1cc(C(C)Nc2cc(F)cc(F)c2)c2oc(N3CCOCC3)cc(=O)c2c1 (stereo not drawn) [Example 4.24, 8-(1-(3,5-difluorophenylamino)ethyl)-N-(2-methoxyethyl)-N-methyl-2-morpholino-4-oxo-4H-chromene-6-carboxamide] showed an IC50 of 4 nM. In the case of CC(Nc1cc(F)cc(F)c1)c1cc(C(=O)N2CCCOCC2)cc2c(=O)cc(N3CCOCC3)oc12 (stereo not drawn) [Example 4.25, 8-(1-(3,5-difluorophenylamino)ethyl)-2-morpholino-6-(1,4-oxazepane-4-carbonyl)-4H-chromen-4-one], the IC50 is reported as 5 nM. Compound COC1CCN(C(=O)c2cc(C(C)Nc3cc(F)cc(F)c3)c3oc(N4CCOCC4)cc(=O)c3c2)CC1 (stereo not drawn) [Example 4.26, 8-(1-(3,5-difluorophenylamino)ethyl)-6-(4-methoxypiperidine-1-carbonyl)-2-morpholino-4H-chromen-4-one] has an IC50 of 4 nM. CC(c1cc(C(=O)N2CCC(O)CC2)cc2c(=O)cc(N3CCOCC3)oc12)N(C)c1cc(F)cc(F)c1 (stereo not drawn) [Example 5.01, 8-(1-((3,5-difluorophenyl)(methyl)amino)ethyl)-6-(4-hydroxypiperidine-1-carbonyl)-2-morpholino-4H-chromen-4-one] showed an IC50 of 8 nM. CC(c1cc(C(=O)N2CCC(O)C2)cc2c(=O)cc(N3CCOCC3)oc12)N(C)c1cc(F)cc(F)c1 (stereo not drawn) [Example 5.02, 8-(1-((3,5-difluorophenyl)(methyl)amino)ethyl)-6-(3-hydroxypyrrolidine-1-carbonyl)-2-morpholino-4H-chromen-4-one] was tested, and the IC50 was 7 nM. CC(c1cc(C(=O)N2CCC[C@@H]2CO)cc2c(=O)cc(N3CCOCC3)oc12)N(C)c1cc(F)cc(F)c1 (stereo partly drawn) [Example 5.03, 8-(1-((3,5-difluorophenyl)(methyl)amino)ethyl)-6-((R)-2-(hydroxymethyl)pyrrolidine-1-carbonyl)-2-morpholino-4H-chromen-4-one] was tested, and the IC50 was 7 nM. With CC(c1cc(C(=O)N2CCCC2)cc2c(=O)cc(N3CCOCC3)oc12)N(C)c1cc(F)cc(F)c1 (stereo not drawn) [Example 6.0, 8-(1-((3,5-difluorophenyl)(methyl)amino)ethyl)-2-morpholino-6-(pyrrolidine-1-carbonyl)-4H-chromen-4-one] the IC50 was 5 nM. Compound CC(Nc1ccc(F)cc1)c1cc(C(=O)N(C)C)cc2c(=O)cc(N3CCO[C@H](C)C3)oc12 (stereo partly drawn) [Example 9.0, 8-(1-(4-fluorophenylamino)ethyl)-N,N-dimethyl-2-((R)-2-methylmorpholino)-4-oxo-4H-chromene-6-carboxamide] has an IC50 of 5 nM. CC(Nc1cc(F)cc(F)c1)c1cc(C(=O)N(C)C)cc2c(=O)cc(N3CCO[C@H](C)C3)oc12 (stereo partly drawn) [Example 9.01, 8-(1-(3,5-difluorophenylamino)ethyl)-N,N-dimethyl-2-((R)-2-methylmorpholino)-4-oxo-4H-chromene-6-carboxamide] showed an IC50 of 4 nM. Compound CC(Nc1cc(F)cc(F)c1)c1cc(C(=O)N(C)C)cc2c(=O)cc(N3CCO[C@@H](C)C3)oc12 (stereo partly drawn) [Example 9.02, 8-(1-(3,5-difluorophenylamino)ethyl)-N,N-dimethyl-2-((S)-2-methylmorpholino)-4-oxo-4H-chromene-6-carboxamide] has an IC50 of 11 nM.
